US9738634B2, “Heterocyclic amide compound and herbicide” (SYNGENTA PARTICIPATIONS AG, priority 2013, dated 2017)

Tests used:
Assay type in all cases: in vivo
wheat [1] = experiment: Test Example 3: soil treatment, effect on crop; e: wheat; conditions: treatment dosage 315 g/ha
How it was run: (§1)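 Crop and weed responses were judged three weeks after a uniform surface spray of the water-diluted emulsion at the given g/ha rate. Seeds sat beneath about 1.5 cm of sterilized diluvial soil, and boxes stood in a greenhouse at 25 to 30° C.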

black-grass [2] = experiment: Test Example 4: weedkilling efficacy by foliar treatment; H: black-grass; conditions: treatment dosage 315 g/ha
How it was run: (§2)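 Seeds are spot-sown into sterilized diluvial soil and covered with about 1.5 cm of soil. After 14 days' greenhouse growth at 25 to 30° C, plants are sprayed on stems and leaves with diluted emulsion at the stated g/ha rate, then scored at 3 weeks.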

green foxtail [3] = experiment: Test Example 3: weedkilling efficacy through soil treatment; E: green foxtail; conditions: treatment dosage 315 g/ha
How it was run: as §1

beet [4] = experiment: Test Example 4: foliar treatment, effect on crop; f: beet; conditions: treatment dosage 315 g/ha
How it was run: as §2

fig-leafed goosefoot [5] = experiment: Test Example 3: weedkilling efficacy through soil treatment; M: fig-leafed goosefoot; conditions: treatment dosage 315 g/ha
How it was run: as §1

corn [6] = experiment: Test Example 3: soil treatment, effect on crop; c: corn; conditions: treatment dosage 315 g/ha
How it was run: as §1

soybean [7] = experiment: Test Example 4: foliar treatment, effect on crop; d: soybean; conditions: treatment dosage 315 g/ha
How it was run: as §2

oval-leafed pondweed [8] = experiment: Test Example 1: weedkilling efficacy, preemergent weed treatment in the submerged state; C: oval-leafed pondweed; conditions: treatment dosage 252 g/ha
How it was run: (§3)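 Emulsion diluted with water to the specified per-hectare dosage is applied onto flood water (4 cm) over alluvial soil on the sowing day, with barnyard grass, bulrush and pondweed seeded and rice (2.5-leaf) transplanted; plants grow at 25–30 °C and are rated at 3 weeks.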

soybean [9] = experiment: Test Example 3: soil treatment, effect on crop; d: soybean; conditions: treatment dosage 315 g/ha
How it was run: as §1

Italian ryegrass [10] = experiment: Test Example 3: weedkilling efficacy through soil treatment; I: Italian ryegrass; conditions: treatment dosage 315 g/ha
How it was run: as §1

wild oat [11] = experiment: Test Example 4: weedkilling efficacy by foliar treatment; G: wild oat; conditions: treatment dosage 315 g/ha
How it was run: as §2

fig-leafed goosefoot [12] = experiment: Test Example 4: weedkilling efficacy by foliar treatment; M: fig-leafed goosefoot; conditions: treatment dosage 315 g/ha
How it was run: as §2

oval-leafed pondweed [13] = experiment: Test Example 2: weedkilling efficacy, growth period weed treatment in the submerged state; C: oval-leafed pondweed; conditions: treatment dosage 252 g/ha
How it was run: (§4)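 First, alluvial soil in pots is flooded to 4 cm and mixed seed is sown. Next, plants grow in a greenhouse at 25 to 30° C until the 1-2 leaf stage. Then diluted emulsion is applied onto the water surface at the given g/ha rate, and injury is assessed after 3 weeks.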

redroot pigweed [14] = experiment: Test Example 3: weedkilling efficacy through soil treatment; L: redroot pigweed; conditions: treatment dosage 315 g/ha
How it was run: as §1

catchweed [15] = experiment: Test Example 4: weedkilling efficacy by foliar treatment; O: catchweed; conditions: treatment dosage 315 g/ha
How it was run: as §2

directly sown rice [16] = experiment: Test Example 3: soil treatment, effect on crop; b: directly sown rice; conditions: treatment dosage 315 g/ha
How it was run: as §1

bulrush [17] = experiment: Test Example 1: weedkilling efficacy, preemergent weed treatment in the submerged state; B: bulrush; conditions: treatment dosage 252 g/ha
How it was run: as §3

crabgrass [18] = experiment: Test Example 4: weedkilling efficacy by foliar treatment; D: crabgrass; conditions: treatment dosage 315 g/ha
How it was run: as §2

transplanted rice = experiment: Test Example 1: preemergent weed treatment in the submerged state, effect on crop; a: transplanted rice; conditions: treatment dosage 252 g/ha
How it was run: as §3

birds-eye speedwell [19] = experiment: Test Example 3: weedkilling efficacy through soil treatment; p: birds-eye speedwell; conditions: treatment dosage 315 g/ha
How it was run: as §1

redroot pigweed [20] = experiment: Test Example 4: weedkilling efficacy by foliar treatment; L: redroot pigweed; conditions: treatment dosage 315 g/ha
How it was run: as §2

corn [21] = experiment: Test Example 4: foliar treatment, effect on crop; c: corn; conditions: treatment dosage 315 g/ha
How it was run: as §2

chickweed [22] = experiment: Test Example 4: weedkilling efficacy by foliar treatment; N: chickweed; conditions: treatment dosage 315 g/ha
How it was run: as §2

Indian mallow [23] = experiment: Test Example 4: weedkilling efficacy by foliar treatment; K: Indian mallow; conditions: treatment dosage 315 g/ha
How it was run: as §2

crabgrass [24] = experiment: Test Example 3: weedkilling efficacy through soil treatment; D: crabgrass; conditions: treatment dosage 315 g/ha
How it was run: as §1

green foxtail [25] = experiment: Test Example 4: weedkilling efficacy by foliar treatment; E: green foxtail; conditions: treatment dosage 315 g/ha
How it was run: as §2

beet [26] = experiment: Test Example 3: soil treatment, effect on crop; f: beet; conditions: treatment dosage 315 g/ha
How it was run: as §1

catchweed [27] = experiment: Test Example 3: weedkilling efficacy through soil treatment; O: catchweed; conditions: treatment dosage 315 g/ha
How it was run: as §1

bulrush [28] = experiment: Test Example 2: weedkilling efficacy, growth period weed treatment in the submerged state; B: bulrush; conditions: treatment dosage 252 g/ha
How it was run: as §4

wild oat [29] = experiment: Test Example 3: weedkilling efficacy through soil treatment; G: wild oat; conditions: treatment dosage 315 g/ha
How it was run: as §1

birds-eye speedwell [30] = experiment: Test Example 4: weedkilling efficacy by foliar treatment; p: birds-eye speedwell; conditions: treatment dosage 315 g/ha
How it was run: as §2

Italian ryegrass [31] = experiment: Test Example 4: weedkilling efficacy by foliar treatment; I: Italian ryegrass; conditions: treatment dosage 315 g/ha
How it was run: as §2

wheat [32] = experiment: Test Example 4: foliar treatment, effect on crop; e: wheat; conditions: treatment dosage 315 g/ha
How it was run: as §2

directly sown rice [33] = experiment: Test Example 4: foliar treatment, effect on crop; b: directly sown rice; conditions: treatment dosage 315 g/ha
How it was run: as §2

Indian mallow [34] = experiment: Test Example 3: weedkilling efficacy through soil treatment; K: Indian mallow; conditions: treatment dosage 315 g/ha
How it was run: as §1

black-grass [35] = experiment: Test Example 3: weedkilling efficacy through soil treatment; H: black-grass; conditions: treatment dosage 315 g/ha
How it was run: as §1

barnyard grass [36] = experiment: Test Example 1: weedkilling efficacy, preemergent weed treatment in the submerged state; A: barnyard grass; conditions: treatment dosage 252 g/ha
How it was run: as §3

barnyard grass [37] = experiment: Test Example 2: weedkilling efficacy, growth period weed treatment in the submerged state; A: barnyard grass; conditions: treatment dosage 252 g/ha
How it was run: as §4

chickweed [38] = experiment: Test Example 3: weedkilling efficacy through soil treatment; N: chickweed; conditions: treatment dosage 315 g/ha
How it was run: as §1

SMILES	e (wheat) effect on crop grade (wheat [1])	H (black-grass) weedkilling efficacy grade (black-grass [2])	E (green foxtail) weedkilling efficacy grade (green foxtail [3])	f (beet) effect on crop grade (beet [4])	M (fig-leafed goosefoot) weedkilling efficacy grade (fig-leafed goosefoot [5])	c (corn) effect on crop grade (corn [6])	d (soybean) effect on crop grade (soybean [7])	C (oval-leafed pondweed) weedkilling efficacy grade (oval-leafed pondweed [8])	d (soybean) effect on crop grade (soybean [9])	I (Italian ryegrass) weedkilling efficacy grade (Italian ryegrass [10])	G (wild oat) weedkilling efficacy grade (wild oat [11])	M (fig-leafed goosefoot) weedkilling efficacy grade (fig-leafed goosefoot [12])	C (oval-leafed pondweed) weedkilling efficacy grade (oval-leafed pondweed [13])	L (redroot pigweed) weedkilling efficacy grade (redroot pigweed [14])	O (catchweed) weedkilling efficacy grade (catchweed [15])	b (directly sown rice) effect on crop grade (directly sown rice [16])	B (bulrush) weedkilling efficacy grade (bulrush [17])	D (crabgrass) weedkilling efficacy grade (crabgrass [18])	a (transplanted rice) effect on crop grade (transplanted rice)	P (birds-eye speedwell) weedkilling efficacy grade (birds-eye speedwell [19])	also measured
CC1=C(c2ccccc2)C(=O)N(C(C)(C)C(=O)Nc2cc(F)ccn2)CO1 [B-2-25]	1 (weed kill ratio 5% or more, less than 20%)	5 (weed kill ratio 90% or more, (practically complete withering))	5 (weed kill ratio 90% or more, (practically complete withering))	3 (weed kill ratio 40% or more, less than 70%)	4 (weed kill ratio 70% or more, less than 90%)	3 (weed kill ratio 40% or more, less than 70%)	3 (weed kill ratio 40% or more, less than 70%)	5 (weed kill ratio 90% or more, (practically complete withering))	0 (weed kill ratio 5% or less (practically no effect))	5 (weed kill ratio 90% or more, (practically complete withering))	5 (weed kill ratio 90% or more, (practically complete withering))	4 (weed kill ratio 70% or more, less than 90%)	5 (weed kill ratio 90% or more, (practically complete withering))	3 (weed kill ratio 40% or more, less than 70%)	5 (weed kill ratio 90% or more, (practically complete withering))	5 (weed kill ratio 90% or more, (practically complete withering))	5 (weed kill ratio 90% or more, (practically complete withering))	5 (weed kill ratio 90% or more, (practically complete withering))	2 (weed kill ratio 20% or more, less than 40%)	5 (weed kill ratio 90% or more, (practically complete withering))	L (redroot pigweed) weedkilling efficacy grade (redroot pigweed [20]): 2 (weed kill ratio 20% or more, less than 40%); c (corn) effect on crop grade (corn [21]): 3 (weed kill ratio 40% or more, less than 70%); N (chickweed) weedkilling efficacy grade (chickweed [22]): 4 (weed kill ratio 70% or more, less than 90%); K (Indian mallow) weedkilling efficacy grade (Indian mallow [23]): 4 (weed kill ratio 70% or more, less than 90%); D (crabgrass) weedkilling efficacy grade (crabgrass [24]): 5 (weed kill ratio 90% or more, (practically complete withering)); E (green foxtail) weedkilling efficacy grade (green foxtail [25]): 5 (weed kill ratio 90% or more, (practically complete withering)); f (beet) effect on crop grade (beet [26]): 2 (weed kill ratio 20% or more, less than 40%); O (catchweed) weedkilling efficacy grade (catchweed [27]): 5 (weed kill ratio 90% or more, (practically complete withering)); B (bulrush) weedkilling efficacy grade (bulrush [28]): 5 (weed kill ratio 90% or more, (practically complete withering)); G (wild oat) weedkilling efficacy grade (wild oat [29]): 5 (weed kill ratio 90% or more, (practically complete withering)); P (birds-eye speedwell) weedkilling efficacy grade (birds-eye speedwell [30]): 5 (weed kill ratio 90% or more, (practically complete withering)); I (Italian ryegrass) weedkilling efficacy grade (Italian ryegrass [31]): 5 (weed kill ratio 90% or more, (practically complete withering)); e (wheat) effect on crop grade (wheat [32]): 0 (weed kill ratio 5% or less (practically no effect)); b (directly sown rice) effect on crop grade (directly sown rice [33]): 5 (weed kill ratio 90% or more, (practically complete withering)); K (Indian mallow) weedkilling efficacy grade (Indian mallow [34]): 4 (weed kill ratio 70% or more, less than 90%); H (black-grass) weedkilling efficacy grade (black-grass [35]): 5 (weed kill ratio 90% or more, (practically complete withering)); A (barnyard grass) weedkilling efficacy grade (barnyard grass [36]): 5 (weed kill ratio 90% or more, (practically complete withering)); A (barnyard grass) weedkilling efficacy grade (barnyard grass [37]): 5 (weed kill ratio 90% or more, (practically complete withering)); N (chickweed) weedkilling efficacy grade (chickweed [38]): 4 (weed kill ratio 70% or more, less than 90%)
COc1ccnc(NC(=O)C(C)(C)N2COC(C)=C(c3ccccc3)C2=O)c1 [B-2-63]	0 (weed kill ratio 5% or less (practically no effect))	0 (weed kill ratio 5% or less (practically no effect))	4 (weed kill ratio 70% or more, less than 90%)	0 (weed kill ratio 5% or less (practically no effect))	3 (weed kill ratio 40% or more, less than 70%)	0 (weed kill ratio 5% or less (practically no effect))	2 (weed kill ratio 20% or more, less than 40%)	4 (weed kill ratio 70% or more, less than 90%)	0 (weed kill ratio 5% or less (practically no effect))	3 (weed kill ratio 40% or more, less than 70%)	0 (weed kill ratio 5% or less (practically no effect))	3 (weed kill ratio 40% or more, less than 70%)	3 (weed kill ratio 40% or more, less than 70%)	1 (weed kill ratio 5% or more, less than 20%)	2 (weed kill ratio 20% or more, less than 40%)	0 (weed kill ratio 5% or less (practically no effect))	5 (weed kill ratio 90% or more, (practically complete withering))	3 (weed kill ratio 40% or more, less than 70%)	0 (weed kill ratio 5% or less (practically no effect))	4 (weed kill ratio 70% or more, less than 90%)	L (redroot pigweed) weedkilling efficacy grade (redroot pigweed [20]): 0 (weed kill ratio 5% or less (practically no effect)); c (corn) effect on crop grade (corn [21]): 0 (weed kill ratio 5% or less (practically no effect)); N (chickweed) weedkilling efficacy grade (chickweed [22]): 2 (weed kill ratio 20% or more, less than 40%); K (Indian mallow) weedkilling efficacy grade (Indian mallow [23]): 0 (weed kill ratio 5% or less (practically no effect)); D (crabgrass) weedkilling efficacy grade (crabgrass [24]): 4 (weed kill ratio 70% or more, less than 90%); E (green foxtail) weedkilling efficacy grade (green foxtail [25]): 3 (weed kill ratio 40% or more, less than 70%); f (beet) effect on crop grade (beet [26]): 0 (weed kill ratio 5% or less (practically no effect)); O (catchweed) weedkilling efficacy grade (catchweed [27]): 3 (weed kill ratio 40% or more, less than 70%); B (bulrush) weedkilling efficacy grade (bulrush [28]): 4 (weed kill ratio 70% or more, less than 90%); G (wild oat) weedkilling efficacy grade (wild oat [29]): 2 (weed kill ratio 20% or more, less than 40%); P (birds-eye speedwell) weedkilling efficacy grade (birds-eye speedwell [30]): 1 (weed kill ratio 5% or more, less than 20%); I (Italian ryegrass) weedkilling efficacy grade (Italian ryegrass [31]): 1 (weed kill ratio 5% or more, less than 20%); e (wheat) effect on crop grade (wheat [32]): 0 (weed kill ratio 5% or less (practically no effect)); b (directly sown rice) effect on crop grade (directly sown rice [33]): 0 (weed kill ratio 5% or less (practically no effect)); K (Indian mallow) weedkilling efficacy grade (Indian mallow [34]): 0 (weed kill ratio 5% or less (practically no effect)); H (black-grass) weedkilling efficacy grade (black-grass [35]): 1 (weed kill ratio 5% or more, less than 20%); A (barnyard grass) weedkilling efficacy grade (barnyard grass [36]): 5 (weed kill ratio 90% or more, (practically complete withering)); A (barnyard grass) weedkilling efficacy grade (barnyard grass [37]): 3 (weed kill ratio 40% or more, less than 70%); N (chickweed) weedkilling efficacy grade (chickweed [38]): 3 (weed kill ratio 40% or more, less than 70%)
